These results are taken from patent US20090186915A1, “Compositions and methods for treatment of glioblastoma, gliosarcoma, NSCLC, and head and neck cancer” (Unibioscreen S. A., priority 2006, published 2009).

In one series the test system is U-373 MG. Nature of the series: Cell migration (phase-contrast microscopy). Conditions: Homo sapiens, U373 MG, 22 h, read-out: Maximum effects (cell migration); for Emax at 0.1 µM: at 10^−7 M. The series is classed as cell-based. Here is the method:
Cells of different cancer lines, i.e. U-373 MG (Glioma cancer) and A549 (Lung cancer) were seeded on culture flask 48 hours before the migration experiment. On the test day, cells were treated with or without the compound of example 2 in closed Falcon dishes containing a buffered medium at a controlled temperature (37.0±0.1° C.) for 12 or 22 hours, as noted in the right column of table 3. The compound of example 2 was used at three non-cytotoxic concentrations (10^−6 M, 10^−7M, 10^−8 M). Migration of the cells was observed by means of a CCD-camera mounted on a phase-contrast microscope. Statistical analysis of the migration, with the non-parametric Mann-Whitney test, was established for 25% and 50% of the most motile cells and for the entire cell population.

Series [1] relates to orthotopic Hs683 xenograft. Nature of the series: Orthotopic Hs683 xenograft nude mice model, survival. The series is classed as in vivo. Conditions: Temodal p.o. 40 mg/kg three times a week for three weeks followed by UNBS5162 i.v. 10 mg/kg once a week for three weeks. As to the method: In order to evaluate UNBS5162-mediated in vivo anti-tumor effect in glioma models, an orthotopis Hs683 model was used that was previously evidenced as expressing pro-angiogenic chemokines at the most high level. […] In line with this, an experiment combining Temodal to UNBS5162 was performed.
Thus, combining pro-autophagic therapy with an inhibitor of pro-angiogenic chemokines might represent a new manner to treat glioblastoma, at least some types that express high levels of pro-angiogenic chemokines.

The subject of a further series is DU-145. Nature of the series: Lysosomal membrane permeabilization (LMP), DU-145. It is filed as cell-based, human. To be noted: 72 hours, 10 μM. An excerpt:
It is well known that lysosomes control cell death at several levels. In response to endogenous or exogenous stress (including chemotherapy), lysosomal membrane permeabilization (LMP) can occur, leading to the release of catabolic hydrolases that can mediate caspase-dependent apoptosis, caspase-independent apoptosis-like cell death or even necrosis following high levels of LMP.

A further series deals with OE21 xenograft. Kind of series: s.c. metastatic OE21 xenograft nude mice model. It is filed as in vivo. Conditions: UNBS5162 10 mg/kg i.v. with cisplatin 5 mg/kg i.p. As to the method: To enable the achievement of pertinent in vivo studies, a highly metastatic s.c. model was developed by grafting OE21 cells subcutaneously into nude mice. […] In line with this, an experiment combining cisplatin to UNBS5162 was performed.
The treatment protocol included following conditions: • UNBS5162: N-{2-[2-(dimethylamino)ethyl]-1,3-dioxo-2,3-dihydro-1H-benzo[de]isoquinolin-5-yl}urea
Dose (mg/kg): 10 mg/kg (1.35 eq lactic acid) Dose volume: 200 μL/mouse Schedule: 3 injection(s) per week; 5 weeks (3i×5w)
Dose (mg/kg): 5 mg/kg (saline) Dose volume: 200 μL/mouse Schedule: 1 injection per week; 5 weeks (1×5)
Cisplatine (1×5)×5 mg/kg i.p.=>group 1 UNBS5162 (3×5)×10 mg/kg i.v.=>group 3 Cisplatine (1×3)×5 mg/kg i.p.=>1 w without treatment=>UNBS5162 (3×5)× […] i.v.=>group 4

A further series deals with E2F1. Kind of series: E2F1 expression (Western blot), DU-145. It is filed as cell-based, human. Conditions: 10 μM. Background: Immunoblotting shows a protein as a band on a membrane.
Series [2] has as its system human A549 NSCLC orthotopic. Here is the method:
The purpose of the present study was to evaluate the in vivo efficacy of UNBS5162 on human A549 NSCLC orthotopic nude mice model. The endpoint in this experiment was the survival period of the tumor-bearing mice following treatment, as indicated.
The experiment comprised 6 groups of II mice, one group with mice receiving the vehicle only (Ct group) and 5 groups receiving the treatments as indicated in the Table 13. UNBS5162 was dosed i.v. at 10 mg/kg (in lactic acid vehicle). Taxol (Paclitaxel 6 mg/mL, Bristol-Myers Squibb) was dosed i.v. at 20 mg/kg.

A short description of series [3]: Body weight of MXT-HI tumor-bearing mice. The series is classed as in vivo, female B6D2F1 mice. To be noted: for Mean body weight: UNBS5162 i.v. (5i × 3w) 10 mg/kg, alone or with 10 gray.

SMILES strings stand for the structures. Read-outs that look alike come from different tables or passages of the source.

For the molecule `CN(C)CCN1C(=O)c2cccc3cc(NC(N)=O)cc(c23)C1=O` [UNBS5162, N-{2-[2-(dimethylamino)ethyl]-1,3-dioxo-2,3-dihydro-1H-benzo[de]isoquinolin-5-yl}urea], the results for the Emax at 0.1 µM in the series on U-373 MG (22 hours on the 25% of the most motile cells) and in the series with U-373 MG (22 hours on the 50% of the most motile cells) were -29% and -24%, respectively. For the same molecule, in the series with U-373 MG (22 hours on the 100% of cells, at the 10^−7 M), the Emax is -20%. Moreover, the “survival period of tumor bearing mice” value in series [1] was “significantly prolonged the survival period of tumor bearing mice”. In the series on DU-145, the “lysosomal membrane permeabilization (LMP)” value is recorded as “a marked drug-induced LMP process appeared”. For the same molecule, in the series on OE21 xenograft, the “anti-tumor effect in combination with cisplatin (tumor size)” value is listed as “enhanced the activity of cisplatin”. The E2F1 expression result in the series on E2F1 is “a decrease but not the complete disappearance of Rb protein and E2F1 expression”. In series [2] (UNBS5162 10 mg/kg i.v. in combination with Taxol 20 mg/kg i.v.), the “survival of A549 NSCLC xenograft-bearing mice” value is reported as “significantly increased the survival”. Also, in series [2] (UNBS5162 i.v. 10 mg/kg (3i × 6w)), the “T/C (%)” value is reported as 102%. Moreover, the Mean body weight in series [3] (Day 14) was found to be 22.13 g; in series [3] (Day 16), 23.39 g; in series [3] (Day 19) it was 25.72 g; in series [3] (Day 21) it was 24.35 g; in series [3] (Day 23), 25.46 g; in series [3] (Day 26) it was 28.52 g. Also, the “changes in body weights compared to control” value in series [3] (UNBS5162 10 mg/kg i.v. 5i×3w, alone or with 1×10 gray) was “No significant changes in body weights”.
